Read-outs that look alike come from different tables or passages of the source.
Legend:
[1] = biological target: T1, recombinantly produced, refolded SMT protein (Arabidopsis thaliana, UniProt Q8RUW5, A20T/S19M); assay type: biochemical; conditions: for acceptance as acyl acceptor with sinapoylglucose or PHBA 1-O-acylglucoside: 200 ng SMT, 500 μM glucose ester, 400 mM alcohol, pH 6.2, 30° C. for 16 h
T1 construct: consisting primarily of recombinant mature Arabidopsis SMT and some minor protein contaminants; initiator Met (start codon added in place of the signal peptide) (N); made in house
Protocol: Sinapoyl glucose was purified from the sng1 mutant of Arabidopsis as described by Lorenzen et al. (Plant Physiology 112:1625-1630 (1996)). The SMT assay contained 12.5 μL of 0.5 mM sinapoyl glucose in 100 mM potassium phosphate buffer (pH 7.5), 5 μL of 100 mM potassium phosphate buffer (pH 6.0), 5 μL of 1 M malic acid in potassium phosphate buffer (pH 6.0) and 5 μL of E. coli extract corresponding to 100 μg of protein. Assays were incubated for 14 h at 30° C., stopped by addition of 30 μL of methanol and stored at −70° C. before analysis by HPLC. Enzyme assays were analyzed by HPLC on a Nova-Pak® Pak® C18 column (60 Å pore size, […] particle size) using a gradient from 6% acetonitrile, 1.5% phosphoric acid to 48% acetonitrile, followed by 1.5% phosphoric acid and UV detection at 335 nm.
Approximately 250 ng of recombinantly produced, refolded SMT protein was incubated with 200 mM malate, 0.1 mM PHBA 1-O-acyl glucoside in a 25 μL reaction in 100 mM potassium phosphate buffer (pH 6.2) for 12 h at 30° C. Reaction products were separated by HPLC as described in the General Methods. […] The compound was analyzed by LC-MS as described in the General Methods.
The activity of the SMT enzyme was determined using sinapoyl glucose and L-lactate as follows. 1 μg of partially purified recombinant SMT protein was incubated with 500 μM sinapoyl glucose in 100 mM potassium phosphate buffer (pH 6.2) in the absence or presence of 200 mM L-lactate. Enzyme reactions were incubated at 30° C. for 12 h. Reaction products were analyzed by HPLC as described in the General Methods.
Activity of the SMT enzyme was determined using sinapoylglucose or PHBA 1-O-acylglucoside and methanol, ethanol and isopropanol. Briefly, 200 ng of partially purified recombinantly produced SMT protein was incubated with 500 μM of the glucose ester of sinapic acid or PHBA in 100 mM potassium phosphate buffer (pH 6.2) in the absence or presence of 400 mM of the respective alcohols in 100 μL enzyme reactions. Enzyme reactions were incubated at 30° C. for 16 h. All reaction products were analyzed by HPLC as described in Example 1.

[2] = biological target: SMT (sinapoylglucose:malate sinapoyltransferase) (Arabidopsis thaliana, UniProt Q8RUW5, A20T/S19M)
Protocol: Sinapoyl glucose was purified from the sng1 mutant of Arabidopsis as described by Lorenzen et al. (Plant Physiology 112:1625-1630 (1996)). […] Assays were incubated for 14 h at 30° C., stopped by addition of 30 μL of methanol and stored at −70° C. before analysis by HPLC. Enzyme assays were analyzed by HPLC on a Nova-Pak® Pak® C18 column (60 Å pore size, […] particle size) using a gradient from 6% acetonitrile, 1.5% phosphoric acid to 48% acetonitrile, followed by 1.5% phosphoric acid and UV detection at 335 nm.

O=C(O)CC(O)C(=O)O = assay: purified protein, by the assay type; conditions: other: 30° C., 500 μM sinapoyl glucose, 100 mM potassium phosphate buffer (pH 6.8), 50 ng partially purified SMT, Hofstee plot
[3] = biological target: T2, sinapoyl glucose and L-malate (SMT reaction) (Arabidopsis thaliana, UniProt Q8RUW5, A20T/S19M); assay: Turnover number of purified recombinant SMT folded from inclusion bodies; assay type: biochemical; conditions: 30° C., 100 mM potassium phosphate buffer (pH 6.2), 500 μM sinapoyl glucose, 200 mM L-malate
T2 construct: consisting primarily of recombinant mature Arabidopsis SMT and some minor protein contaminants; initiator Met (start codon added in place of the signal peptide) (N); made in house
Protocol: As judged by SDS-PAGE and Coomassie-blue staining, the folded recombinant protein was at least 80% pure and the final yield of active SMT from the 100 mL folding reaction was ˜6 μg, corresponding to ˜0.52% of the original inclusion body material. The turnover number for purified recombinant SMT folded from inclusion bodies was ˜18/sec at 30° C., which compares favorably to the 11.5/sec value that was previously reported for the authentic protein purified from radish (Graewe et al., Planta 187:236-241 (1992)). For this determination the 25 μL enzyme reaction contained 100 mM potassium phosphate buffer (pH 6.2), 500 μM sinapoyl glucose and 200 mM L-malate.

For C[C@H](O)C(=O)O [L-lactate], the “acceptance as acyl acceptor with sinapoyl glucose” value ([1]; 1 μg SMT, 500 μM sinapoyl glucose, 200 mM L-lactate, pH 6.2, 30° C. for 12 h, product m/z agrees with sinapoyl lactate) was “a new compound that absorbs at 335 nm is produced”.

In the case of O=C(O[C@@H]1O[C@H](CO)[C@@H](O)[C@H](O)[C@H]1O)c1ccc(O)cc1 [PHBA 1-O-acyl glucoside], the “Vmax of SMT for PHBA 1-O-acyl glucoside” value ([2]; 30° C., 200 mM malate, 500 ng partially purified SMT, y-intercept of regression curve) is reported as 0.2482 μmol min^−1 mg^−1 protein, the Km ([2]; read-out: Km of SMT for PHBA 1-O-acyl glucoside, 30° C., 200 mM malate, 100 mM potassium phosphate buffer (pH 6.8), 500 ng partially purified SMT, PHBA malate synthesis, Hofstee plot) is reported as about 354 µM and the “conversion by SMT in the presence of malate” value ([1]; 250 ng SMT, 200 mM malate, 0.1 mM PHBA 1-O-acyl glucoside, pH 6.2, 12 h at 30° C., product m/z agrees with PHBA malate) is reported as “converted to a new compound”.

With CCO [ethanol] the “acceptance as acyl acceptor with sinapoylglucose or PHBA 1-O-acylglucoside” value [1] was “production of methyl, ethyl and isopropyl esters of sinapic acid and PHBA”.

CC(C)O [isopropanol] was tested, and the “acceptance as acyl acceptor with sinapoylglucose or PHBA 1-O-acylglucoside” value [1] was “production of methyl, ethyl and isopropyl esters of sinapic acid and PHBA”.

In the case of CO [methanol], the “acceptance as acyl acceptor with sinapoylglucose or PHBA 1-O-acylglucoside” value [1] is reported as “production of methyl, ethyl and isopropyl esters of sinapic acid and PHBA”.

In the case of COc1cc(/C=C/C(=O)O[C@@H]2O[C@H](CO)[C@@H](O)[C@H](O)[C@H]2O)cc(OC)c1O [sinapoyl glucose], the “Vmax of SMT for sinapoyl glucose” value ([2]; 30° C., 200 mM malate, 50 ng partially purified SMT, y-intercept of regression curve) is reported as 21.315 μmol min^−1 mg^−1 protein and the Km ([2]; read-out: Km of SMT for sinapoyl glucose, pH 6.8) is reported as about 541 µM.

Molecule “SMT (sinapoylglucose:malate sinapoyltransferase) (Arabidopsis thaliana; A20T/S19M)” has a Km (O=C(O)CC(O)C(=O)O) of 42000 µM.

B1: purified recombinant SMT: recombinant mature Arabidopsis sinapoylglucose:malate sinapoyltransferase (SEQ ID NO:7) folded from E. coli inclusion bodies (protein)
chain: MTSIVKFLPGFEGPLPFELETGYIGIGEDENVQFFYYFIKSENNPKEDPLLIWLNGGPGCSCLGGIIFENGPVGLKFEVFNGSAPSLFSTTYSWTKMANIIFLDQPVGSGFSYSKTPIDKTGDISEVKRTHEFLQKWLSRHPQYFSNPLYVVGDSYSGMIVPALVQEISQGNYICCEPPINLQGYMLGNPVTYMDFEQNFRIPYAYGMGLISDEIYEPMKRICNGNYYNVDPSNTQCLKLTEEYHKCTAKINIHHILTPDCDVTNVTSPDCYYYPYHLIECWANDESVREALHIEKGSKGKWARCNRTIPYNHDIVSSIPYHMNNSISGYRSLIYSGDHDIAVPFLATQAWIRSLNYSPIHNWRPWMINNQIAGYTRAYSNKMTFATIKGGGHTAEYRPNETFIMFQRWISGQPL
B1 was tested, and the turnover number [3] was about 18 s⁻¹.
